Laboratory results from the NIST ThermoML archive (doi:10.1016/j.jct.2012.06.012).

Assay: xn = mol fraction of the nth substance listed
Settings: Liquid, Vibrating tube method

CCCCCCCCCC [decane] + CCO
Settings	mass density [kg/m3]
362.64 K, 11000 kPa, x2 = 0.1011	686.5
362.64 K, 11000 kPa, x2 = 0.4963	692.75
362.64 K, 11000 kPa, x2 = 0.9014	719.95
362.64 K, 12000 kPa, x2 = 0.1011	687.56
362.64 K, 12000 kPa, x2 = 0.4963	693.89
362.64 K, 12000 kPa, x2 = 0.9014	721.13
362.64 K, 13000 kPa, x2 = 0.1011	688.62
362.64 K, 13000 kPa, x2 = 0.4963	694.99
362.64 K, 13000 kPa, x2 = 0.9014	722.28
362.64 K, 14000 kPa, x2 = 0.1011	689.68
362.64 K, 14000 kPa, x2 = 0.4963	696.14
362.64 K, 14000 kPa, x2 = 0.9014	723.43
362.64 K, 15000 kPa, x2 = 0.1011	690.66
362.64 K, 15000 kPa, x2 = 0.4963	697.17
362.64 K, 15000 kPa, x2 = 0.9014	724.55
362.64 K, 16000 kPa, x2 = 0.1011	691.66
362.64 K, 16000 kPa, x2 = 0.4963	698.23
362.64 K, 16000 kPa, x2 = 0.9014	725.65
362.64 K, 17000 kPa, x2 = 0.1011	692.65
362.64 K, 17000 kPa, x2 = 0.4963	699.27
362.64 K, 17000 kPa, x2 = 0.9014	726.75
362.64 K, 18000 kPa, x2 = 0.1011	693.62
362.64 K, 18000 kPa, x2 = 0.4963	700.3
362.64 K, 18000 kPa, x2 = 0.9014	727.82
362.64 K, 19000 kPa, x2 = 0.1011	694.56
362.64 K, 19000 kPa, x2 = 0.4963	701.3
362.64 K, 19000 kPa, x2 = 0.9014	728.87
362.64 K, 20000 kPa, x2 = 0.1011	695.5
362.64 K, 20000 kPa, x2 = 0.4963	702.3
362.64 K, 20000 kPa, x2 = 0.9014	729.9
362.65 K, 1000 kPa, x2 = 0.0937	675.13
362.65 K, 2000 kPa, x2 = 0.0937	676.3
362.65 K, 3000 kPa, x2 = 0.0937	677.46
362.65 K, 4000 kPa, x2 = 0.0937	678.6
362.65 K, 5000 kPa, x2 = 0.0937	679.76
362.65 K, 6000 kPa, x2 = 0.0937	680.91
362.65 K, 7000 kPa, x2 = 0.0937	682.04
362.65 K, 8000 kPa, x2 = 0.0937	683.16
362.65 K, 9000 kPa, x2 = 0.0937	684.25
362.65 K, 10000 kPa, x2 = 0.0937	685.35
362.65 K, 11000 kPa, x2 = 0.0937	686.41
362.65 K, 12000 kPa, x2 = 0.0937	687.48
362.65 K, 13000 kPa, x2 = 0.0937	688.51
362.65 K, 14000 kPa, x2 = 0.0937	689.55
362.65 K, 15000 kPa, x2 = 0.0937	690.57
362.65 K, 16000 kPa, x2 = 0.0937	691.56
362.65 K, 17000 kPa, x2 = 0.0937	692.56
362.65 K, 18000 kPa, x2 = 0.0937	693.53
362.65 K, 19000 kPa, x2 = 0.0937	694.47
362.65 K, 20000 kPa, x2 = 0.0937	695.39
362.71 K, 1000 kPa, x2 = 0.7526	692.67
362.71 K, 2000 kPa, x2 = 0.7526	693.99
362.71 K, 3000 kPa, x2 = 0.7526	695.3
362.71 K, 4000 kPa, x2 = 0.7526	696.58
362.71 K, 5000 kPa, x2 = 0.7526	697.86
362.71 K, 6000 kPa, x2 = 0.7526	699.12
362.71 K, 7000 kPa, x2 = 0.7526	700.37
362.71 K, 8000 kPa, x2 = 0.7526	701.6
362.71 K, 9000 kPa, x2 = 0.7526	702.81
362.71 K, 10000 kPa, x2 = 0.7526	704.01
362.71 K, 11000 kPa, x2 = 0.7526	705.19
362.71 K, 12000 kPa, x2 = 0.7526	706.37
362.71 K, 13000 kPa, x2 = 0.7526	707.51
362.71 K, 14000 kPa, x2 = 0.7526	708.68
362.71 K, 15000 kPa, x2 = 0.7526	709.76
362.71 K, 16000 kPa, x2 = 0.7526	710.84
362.71 K, 17000 kPa, x2 = 0.7526	711.92
362.71 K, 18000 kPa, x2 = 0.7526	712.98
362.71 K, 19000 kPa, x2 = 0.7526	714.02
362.71 K, 20000 kPa, x2 = 0.7526	715.03
362.8 K, 1000 kPa, x2 = 0.2507	676.12
362.8 K, 2000 kPa, x2 = 0.2507	677.34
362.8 K, 3000 kPa, x2 = 0.2507	678.55
362.8 K, 4000 kPa, x2 = 0.2507	679.73
362.8 K, 5000 kPa, x2 = 0.2507	680.92
362.8 K, 6000 kPa, x2 = 0.2507	682.09
362.8 K, 7000 kPa, x2 = 0.2507	683.25
362.8 K, 8000 kPa, x2 = 0.2507	684.4
362.8 K, 9000 kPa, x2 = 0.2507	685.54
362.8 K, 10000 kPa, x2 = 0.2507	686.66
362.8 K, 11000 kPa, x2 = 0.2507	687.77
362.8 K, 12000 kPa, x2 = 0.2507	688.85
362.8 K, 13000 kPa, x2 = 0.2507	689.91
362.8 K, 14000 kPa, x2 = 0.2507	691.02
362.8 K, 15000 kPa, x2 = 0.2507	692.02
362.8 K, 16000 kPa, x2 = 0.2507	693.05
362.8 K, 17000 kPa, x2 = 0.2507	694.06
362.8 K, 18000 kPa, x2 = 0.2507	695.04
362.8 K, 19000 kPa, x2 = 0.2507	696.01
362.8 K, 20000 kPa, x2 = 0.2507	696.96
